In patent publication EP0093620A1, “Fungicidal N-phenylcarbamates” (priority 1982, dated 1983):

Columns and labels:
Pyricularia oryzae = conditions: in vivo
[1] = test system: drug-sensitive strain of Botrytis cinerea; test: Preventive effect on gray mold of cucumber, drug-sensitive strain; conditions: 200 ppm active ingredient, cucumber seedlings, mycelial disks, 3 days
Description: (§1) The leaves examined were measured for a percentage of infected area and classified into the corresponding disease indices, 0, 0.5, 1, 2, 4:
(§2) The disease severity was calculated according to the following equation: [formula]
(§3) The prevention value was calculated according to the following equation: [formula]
(§4) Preventive effect on gray mold of cucumber (Botrytis cinerea):-
(§5) Plastic pots of 90 ml volume were filled with sandy soil, and seeds of cucumber (var: Sagami-hanjiro) were sowed therein. Cultivation was carried out in a greenhouse for 8 days to obtain cucumber seedlings expanding cotyledons. Onto the resulting seedlings, the test compound formulated in emulsifiable concentrate or wettable powder and diluted with water was sprayed at a rate of 10 ml per pot. After air-drying, the seedlings were inoculated with mycelial disks (5 mm in diameter) of the drug-resistant or drug-sensitive strain of Botrytis cinerea by putting them on the leaf surfaces. After the plants were infected by incubating under high humidity at 20°C for 3 days, the rates of disease severity were observed.

[2] = test system: drug-resistant strain of Botrytis cinerea; test: Preventive effect on gray mold of cucumber, drug-resistant strain; conditions: 200 ppm active ingredient, cucumber seedlings, mycelial disks, 3 days
Description: as §1, §2, §3, §4, §5

[3] = test system: drug-sensitive strain of Sphaerotheca fuliginea; conditions: for pest or weed control at 200 ppm: Podosphaera fuliginea, in Cucumis sativus, topical, 240 h, read-out: Prevention value when inoculated with drug-sensitive strain; for Prevention value when inoculated with drug-sensitive strain: 200 ppm active ingredient, cucumber seedlings, spray, 10 days after inoculation
Description: (§6) Protective activity test on powdery mildew of cucumber (Sphaerotheca fuliginea):-
(§7) A flower pot of 90 ml volume was filed with sandy soil, and seeds of cucumber (var: Sagami-hanjiro) were sowed therein. Cultivation was carried out in a greenhouse for 8 days. Onto the resulting seedlings having cotyledons, the test compound formulated in emulsifiable concentrate or wettable powder and diluted with water was sprayed at a rate of 10 ml per pot. Then, the seedlings were inoculated with a spore suspension of the drug-resistant or drug-sensitive strain of Sphaerotheca fuliginea by spraying and further cultivated in the greenhouse. Ten days thereafter, the infectious state of-the plants was observed.
as §1, §2, §3

[4] = test system: drug-sensitive strain of Venturia nashicola; test: Preventive effect on scab of pear, drug-sensitive strain; conditions: 200 ppm active ingredient, pear seedlings, spray
Description: as §1, §2, §3
(§8) A plastic pot of 90 ml volume was filled with sandy soil, and seeds of pear (var: Chojuro) were sowed . therein. Cultivation was carried out in a greenhouse for 20 days. Onto the resulting seedlings, the test compound formulated in emulsifiable concentrate or wettable powder and diluted with water was sprayed at a rate of 10 ml per pot. Then, the seedlings were inoculated with a spore suspension of the drug-resistant or drug-sensitive strain of Venturia nashicola by spraying. The resulting plants were placed at 20°C under a condition of high humidity for 3 days and then at 20°C under irradiation with a fluorescent lamp for 20 days.

[5] = test system: drug-sensitive strain of Cercospora beticola; conditions: for pest or weed control at 200 ppm: Cercospora beticola, in Beta vulgaris, topical, 240 h, read-out: Prevention value when inoculated with drug-sensitive strain; for Prevention value when inoculated with drug-sensitive strain: 200 ppm active ingredient, sugarbeet seedlings, spray, 10 days
Description: as §1, §2, §3
(§9) Preventive effect on cercospora leaf spot of sugarbeet (Cercospora beticola):-A flower pot of 90 ml volume was filled with sandy soil, and seeds of sugarbeet (var: Detroit dark red) were sowed therein. Cultivation was carried out in a greenhouse for 20 days. Onto the resulting seedlings, the test compound formulated in emulsifiable concentrate or wettable powder and diluted with water was sprayed at a rate of 10 ml per pot. Then, the seedlings were inoculated with a spore suspension of the drug-resistant or drug-sensitive strain of Cercospora beticola by spraying. The pot was covered with a polyvinyl chloride sheet to make a condition of high humidity, and cultivation was continued in the greenhouse for 10 days.

[6] = test system: drug-resistant strain of Sphaerotheca fuliginea; conditions: for pest or weed control at 200 ppm: Podosphaera fuliginea, in Cucumis sativus, topical, 240 h, read-out: Prevention value when inoculated with drug-resistant strain; for Prevention value when inoculated with drug-resistant strain: 200 ppm active ingredient, cucumber seedlings, spray, 10 days after inoculation
Description: as §6, §7, §1, §2, §3

[7] = test system: drug-resistant strain of Cercospora beticola; conditions: for pest or weed control at 200 ppm: Cercospora beticola, in Beta vulgaris, topical, 240 h, read-out: Prevention value when inoculated with drug-resistant strain; for Prevention value when inoculated with drug-resistant strain: 200 ppm active ingredient, sugarbeet seedlings, spray, 10 days
Description: as §1, §2, §3, §9

[8] = test system: drug-resistant strain of Venturia nashicola; test: Preventive effect on scab of pear, drug-resistant strain; conditions: 200 ppm active ingredient, pear seedlings, spray
Description: as §1, §2, §3, §8

## CCOP(=O)(Sc1ccccc1)Sc1ccccc1 [Edifenphos]
Pyricularia oryzae
  Prevention value: 97%

## CCOc1ccc(N(C(=O)OC(C)C)C(=O)c2ccccc2)cc1COC [Compound No. 134, isopropyl N-benzoyl-N-(3-methoxymethyl-4-ethoxyphenyl)carbamate]
[1]
  Prevention value when inoculated with drug-sensitive strain: 0%
[2]
  Prevention value when inoculated with drug-resistant strain: 100%

## COC(=O)NC(=S)Nc1ccccc1NC(=S)NC(=O)OC [E, 1,2-Bis(3-methoxy-carbonyl-2-thio-ureido)benzene]
[3]
  pest or weed control at 200 ppm: 100%
[1]
  Prevention value when inoculated with drug-sensitive strain: 100%
[4]
  Prevention value when inoculated with drug-sensitive strain: 100%
[5]
  pest or weed control at 200 ppm: 100%
[6]
  pest or weed control at 200 ppm: 0%
[7]
  pest or weed control at 200 ppm: 0%
[8]
  Prevention value when inoculated with drug-resistant strain: 0%
[2]
  Prevention value when inoculated with drug-resistant strain: 0%

## CC(C)OC(=O)Nc1ccccc1 [Propham, isopropyl N-phenylcarbamate]
[3]
  pest or weed control at 200 ppm: 0%
[5]
  pest or weed control at 200 ppm: 0%
[6]
  pest or weed control at 200 ppm: 0%
[7]
  pest or weed control at 200 ppm: 0%

## O=C(Nc1cccc(Cl)c1)OCCCl [CEPC]
[3]
  Prevention value when inoculated with drug-sensitive strain: 0%
[5]
  Prevention value when inoculated with drug-sensitive strain: 0%
[6]
  Prevention value when inoculated with drug-resistant strain: 0%
[7]
  Prevention value when inoculated with drug-resistant strain: 0%

## CCCCNC(=O)n1c(NC(=O)OC)nc2ccccc21 [A, Methyl 1-(butyl-carbamoyl)benz-imidazol-2-yl-carbamate]
[3]
  pest or weed control at 200 ppm: 100%
[1]
  Prevention value when inoculated with drug-sensitive strain: 100%
[4]
  Prevention value when inoculated with drug-sensitive strain: 100%
[5]
  pest or weed control at 200 ppm: 100%
[6]
  pest or weed control at 200 ppm: 0%
[7]
  pest or weed control at 200 ppm: 0%
[8]
  Prevention value when inoculated with drug-resistant strain: 0%
[2]
  Prevention value when inoculated with drug-resistant strain: 0%

## CC(C)OC(=O)Nc1cccc(Cl)c1 [Chlorpropham, isopropyl N-(3-chlorophenyl)carbamate]
[3]
  pest or weed control at 200 ppm: 0%
[5]
  pest or weed control at 200 ppm: 0%
[6]
  pest or weed control at 200 ppm: 0%
[7]
  pest or weed control at 200 ppm: 0%

## O=C(Nc1cccc(Cl)c1)OCC#CCCl [Barban, 4-chloro-2-butynyl N-(3-chlorophenyl)carbamate]
[3]
  pest or weed control at 200 ppm: 0%
[5]
  pest or weed control at 200 ppm: 0%
[6]
  pest or weed control at 200 ppm: 25%
[7]
  pest or weed control at 200 ppm: 34%

## COC(=O)Nc1ccc(Cl)c(Cl)c1 [Swep]
[3]
  Prevention value when inoculated with drug-sensitive strain: 0%
[5]
  Prevention value when inoculated with drug-sensitive strain: 0%
[6]
  Prevention value when inoculated with drug-resistant strain: 0%
[7]
  Prevention value when inoculated with drug-resistant strain: 0%

## CCOc1ccc(NC(=O)OC(C)C)cc1CC [Compound No. 50, isopropyl N-(3-ethyl-4-ethoxyphenyl)carbamate]
[3]
  pest or weed control at 200 ppm: 0%
[1]
  Prevention value when inoculated with drug-sensitive strain: 0%
[4]
  Prevention value when inoculated with drug-sensitive strain: 0%
[5]
  pest or weed control at 200 ppm: 0%
[6]
  pest or weed control at 200 ppm: 100%
[7]
  pest or weed control at 200 ppm: 100%
[8]
  Prevention value when inoculated with drug-resistant strain: 98%
[2]
  Prevention value when inoculated with drug-resistant strain: 100%

## CCOc1ccc(NC(=O)OC(C)C)cc1COC [compound 77, isopropyl N-(3-methoxymethyl-4-ethoxyphenyl)carbamate]
[3]
  pest or weed control at 200 ppm: 0%
[1]
  Prevention value when inoculated with drug-sensitive strain: 0%
[4]
  Prevention value when inoculated with drug-sensitive strain: 0%
[5]
  pest or weed control at 200 ppm: 0%
[6]
  pest or weed control at 200 ppm: 100%
[7]
  pest or weed control at 200 ppm: 100%
[8]
  Prevention value when inoculated with drug-resistant strain: 100%
[2]
  Prevention value when inoculated with drug-resistant strain: 100%

## COC(=O)Nc1nc2ccccc2[nH]1 [C, Methyl benzimidazol-2-ylcarbamate]
[3]
  pest or weed control at 200 ppm: 100%
[5]
  pest or weed control at 200 ppm: 100%
[6]
  pest or weed control at 200 ppm: 0%
[7]
  pest or weed control at 200 ppm: 0%

## C#CC(C)OC(=O)Nc1cccc(Cl)c1 (stereo not drawn) [Chlorbufam, 1-methyl-2-propynyl N-(3-chlorophenyl)carbamate]
[3]
  pest or weed control at 200 ppm: 100%
[5]
  pest or weed control at 200 ppm: 100%
[6]
  pest or weed control at 200 ppm: 0%
[7]
  pest or weed control at 200 ppm: 0%
